According to US20200405867A1, “ORAL DOSAGE FORMS” (Sunovion Pharmaceuticals Inc., priority 2018, published 2020):
Counter-ions that a name gives are not always drawn. Like-named read-outs stand apart in the source and are kept apart here.

Experiments:
[1] = capsule, doses of 1 to 8 mg, adult or adolescent; cited from earlier work
[2] = format: physicochemical; details: for impurities: four weeks
Excerpt: A solution must be stable for commercially reasonable periods. […] In experimenting with buffering agents such as tartrate and citrate, precipitation of dasotraline HCl was discovered.

[3] = format: physicochemical
Excerpt: In addition to chemical/physical stability, the formulation must remain free of microbial growth for commercially reasonable periods. Several common preservatives failed when combined with dasotraline HCl and malate buffer.

physchem = format: physicochemical
Excerpt: To make a solution, one must attain sufficient solubility to achieve efficacious levels of an active pharmaceutical ingredient (API) while avoiding precipitation.

impurities ([2]; 10 mM malate buffer, pH≤3.5, 60° C.) | impurities ([2]; higher (25 mM) malate buffer amount, pH>3, 60° C.) [%] | physical stability of solution ([2]; pH 3) | physical stability of solution ([2]; pH 3.5) | physical stability of solution ([2]; pH 5) | physical stability of solution [3] | stability of solution ([3]; 4 weeks) | impurities ([3]; malate buffer, 5% propylene glycol, further stress beyond four weeks at 60° C.) [%] | pH window of maximal solubility in water (physchem) | solubility (physchem; pH 2.2, aqueous buffer) [µg/mL] | solubility (physchem; pH 2.7, aqueous buffer) [µg/mL] | solubility (physchem; pH 3, aqueous buffer) [µg/mL] | solubility (physchem; pH 3.4, aqueous buffer) [µg/mL] | solubility (physchem; pH 3.9, aqueous buffer) [µg/mL] | solubility (physchem; pH 4.4, aqueous buffer) [µg/mL] | solubility (physchem; pH 4.9, aqueous buffer) [µg/mL] | SMILES | abuse liability [1] | efficacy in treating ADHD [1] | stability of solution [3]
– | – | – | – | – | – | – | – | – | – | – | – | – | – | – | – | N[C@@H]1CC[C@@H](c2ccc(Cl)c(Cl)c2)c2ccccc21 [dasotraline, (1R,4S)-4-(3,4-dichlorophenyl)-1,2,3,4-tetrahydronaphthalen-1-amine] | no detectable abuse liability | effective in treating ADHD | –
no detectable impurities | > 0.1 | precipitation | precipitation | precipitation | induced precipitation | effective up to four weeks at 60 °C | > 0.1 | 2.0-3.0 pH | 1900 | 2200 | 2100 | 1300 | 800 | 600 | 400 | N[C@@H]1CC[C@@H](c2ccc(Cl)c(Cl)c2)c2ccccc21 [dasotraline HCl] | – | – | stable solution under all conditions tested
